Data from patent US9657351B2, “MRNA-based gene expression for personalizing patient cancer therapy with an MDM2 antagonist” (Hoffmann-La Roche Inc., priority 2013, dated 2017).

Experiments:
Test in all cases: COMPOUND A In Vitro Assay
Format in all cases: cell-based
AGS = conditions: Homo sapiens
From the text: (§1) To generate an MDM2 antagonist therapy predictive signature, the response of MDM2 antagonist therapy in vitro with gene expression profiling (FIG. 1) is combined. A bank of 287 human cancer cell lines, collectively termed the Cell Lines for Oncology/Chugai ACcumulative Tumour EncycLopedia (CELLO/CACTEL), representing a broad array of diverse human cancer tumor types are subject to evaluation using several high-throughput genomic technology platforms. The mutational status of nucleic acids from each cell line is determined by exome sequencing. Messenger RNA (mRNA) expression levels at baseline, prior to MDM2 antagonist therapy, are obtained via RNA sequencing. MDM2 antagonist therapy COMPOUND A, sometimes referred to herein as RG7112, responses are obtained by assays known to those skilled in the art such as RNA sequencing and microarray measurement using Gene Chip Human Genome U133 Plus 2.0 Array. The MDM2 therapy responses are obtained by high throughout screening assays. Depending on their responses to COMPOUND A these cell lines are classified as either sensitive, defined as IC50<=1, or resistant, defined as IC50>=10.
(§2) 281 cells are treated with MDM2 antagonists and the IC50 (therapy response) is generated. The cell lines span a broad range of tumor cell types of derivation.

BT-483 = conditions: Homo sapiens, Breast, mammary gland, TP53 Mutant
From the text: as §1, §2

Caki-1 = conditions: Homo sapiens
From the text: as §1, §2

HARA-B = conditions: Homo sapiens, Lung, TP53 Mutant
From the text: as §1, §2

HCC1395 = conditions: Homo sapiens, Breast, mammary gland, TP53 Mutant
From the text: as §1, §2

HCC1569 = conditions: Homo sapiens, Breast, mammary gland, TP53 Mutant
From the text: as §1, §2

HPAC = conditions: Homo sapiens, Pancreas, TP53 Mutant
From the text: as §1, §2

HPAF-II = conditions: Homo sapiens, Pancreas, TP53 Mutant
From the text: as §1, §2

HT-1080 = conditions: Homo sapiens
From the text: as §1, §2

Hs 38•T = conditions: Homo sapiens
From the text: as §1, §2

KG-1a = conditions: Homo sapiens, Bone marrow, TP53 Mutant
From the text: as §1, §2

Kasumi-1 = conditions: Homo sapiens, Lymphocyte, peripheral blood, TP53 Mutant
From the text: as §1, §2

LS 174T = conditions: Homo sapiens, LS174T
From the text: as §1, §2

MDA-MB-361 = conditions: Homo sapiens, Breast, mammary gland, TP53 Mutant
From the text: as §1, §2

MDA-MB-453 = conditions: Homo sapiens, Breast, mammary gland, TP53 Mutant
From the text: as §1, §2

MEG-01 = conditions: Homo sapiens, Leukemia, chronic myeloid, TP53 Mutant
From the text: as §1, §2

MKN-74 = conditions: Homo sapiens
From the text: as §1, §2

NCI-H1155 = conditions: Homo sapiens, Lung, TP53 Mutant
From the text: as §1, §2

NCI-H1299 = conditions: Homo sapiens, Lung, TP53 Mutant
From the text: as §1, §2

NCI-H1792 = conditions: Homo sapiens, Lung, TP53 Mutant
From the text: as §1, §2

NCI-H1838 = conditions: Homo sapiens, Lung, TP53 Mutant
From the text: as §1, §2

NCI-H2009 = conditions: Homo sapiens, Lung, TP53 Mutant
From the text: as §1, §2

NCI-H2029 = conditions: Homo sapiens, Lung, TP53 Mutant
From the text: as §1, §2

NCI-H2170 = conditions: Homo sapiens, Lung, TP53 Mutant
From the text: as §1, §2

NCI-H2171 = conditions: Homo sapiens, Lung, TP53 Mutant
From the text: as §1, §2

NCI-H2228 = conditions: Homo sapiens, Lung, TP53 Mutant
From the text: as §1, §2

NCI-H460 = conditions: Homo sapiens
From the text: as §1, §2

NCI-H520 = conditions: Homo sapiens, Lung, TP53 Mutant
From the text: as §1, §2

NCI-N87 = conditions: Homo sapiens, Stomach, TP53 Mutant
From the text: as §1, §2

PC-3 = conditions: Homo sapiens, Prostate, TP53 Mutant
From the text: as §1, §2

PLC/PRF/5 = conditions: Homo sapiens, Liver, TP53 Mutant
From the text: as §1, §2

QG-56 = conditions: Homo sapiens, Lung, TP53 Mutant
From the text: as §1, §2

RT4 = conditions: Homo sapiens, RT-4, Urinary, bladder, TP53 Wild type
From the text: as §1, §2

SK-MEL-1 = conditions: Homo sapiens
From the text: as §1, §2

SK-MEL-30 = conditions: Homo sapiens, Skin, TP53 Mutant
From the text: as §1, §2

SU•86•86 = conditions: Homo sapiens, SU.86.86, Pancreas, TP53 Mutant
From the text: as §1, §2

T84 = conditions: Homo sapiens, Intestine, large, colon, TP53 Mutant
From the text: as §1, §2

With CCOc1cc(C(C)(C)C)ccc1C1=N[C@@](C)(c2ccc(Cl)cc2)[C@@](C)(c2ccc(Cl)cc2)N1C(=O)N1CCN(CCCS(C)(=O)=O)CC1 [COMPOUND A] the IC50 (AGS; AGS cells) was 0.1 µM, the IC50 (AGS; Stomach, TP53 Wild type) was 0.13 µM and the IC50 (BT-483) was 20 µM. For the same compound, the IC50 (Caki-1; CAKI-1, Caki-1, Kidney, TP53 Wild type) was 0.37 µM, the IC50 (Caki-1; CAKI-1, Caki-1 cells) was 0.4 µM and the IC50 (HARA-B) was 10 µM. It also gave an IC50 (HCC1395) of 20 µM, an IC50 (HCC1569) of 15 µM and an IC50 (HPAC) of 4.6 µM. It also gave an IC50 (HPAF-II) of 10 µM, an IC50 (HT-1080; HT-1080, HT-1080, Connective tissue, TP53 Wild type) of 0.058 µM and an IC50 (HT-1080; HT-1080, HT-1080 cells) of 0.1 µM. It also gave an IC50 (Hs 38•T; Hs 38•T cells) of 0.7 µM, an IC50 (Hs 38•T; Hs 38•T, Ovary, TP53 Wild type) of 0.73 µM and an IC50 (KG-1a) of 9 µM. It also gave an IC50 (Kasumi-1) of 21 µM, an IC50 (LS 174T; LS 174T cells) of 0.6 µM and an IC50 (LS 174T; LS 174T, Intestine, large, colon, TP53 Wild type) of 0.59 µM. It also gave an IC50 (MDA-MB-361) of 21 µM, an IC50 (MDA-MB-453) of 20 µM and an IC50 (MEG-01) of 17 µM. For the same compound, the IC50 (MKN-74; MKN-74, MKN-74, Muscle, smooth, stomach, TP53 Wild type) was 0.88 µM, the IC50 (MKN-74; MKN-74, MKN-74 cells) was 0.9 µM and the IC50 (NCI-H1155) was 22 µM. For the same compound, the IC50 (NCI-H1299) was 15 µM, the IC50 (NCI-H1792) was 7 µM and the IC50 (NCI-H1838) was 9.8 µM. For the same compound, the IC50 (NCI-H2009) was 9.9 µM, the IC50 (NCI-H2029) was 5.8 µM and the IC50 (NCI-H2170) was 12 µM. For the same compound, the IC50 (NCI-H2171) was 11 µM, the IC50 (NCI-H2228) was 9.8 µM and the IC50 (NCI-H460; NCI-H460, NCI-H460, Lung, TP53 Wild type) was 0.88 µM. It also gave an IC50 (NCI-H460; NCI-H460, NCI-H460 cells) of 0.9 µM, an IC50 (NCI-H520) of 17 µM and an IC50 (NCI-N87) of 12 µM. For the same compound, the IC50 (PC-3) was 9 µM, the IC50 (PLC/PRF/5) was 7 µM and the IC50 (QG-56) was 10 µM. The IC50 (RT4) was 2.4 µM, the IC50 (SK-MEL-1; SK-MEL-1, SK-MEL-1, Skin, TP53 Wild type) was 0.75 µM and the IC50 (SK-MEL-1; SK-MEL-1, SK-MEL-1 cells) was 0.8 µM. For the same compound, the IC50 (SK-MEL-30) was 19 µM, the IC50 (SU•86•86) was 6.7 µM and the IC50 (T84) was 5.3 µM.
